Reference: patent publication US7786299B2, “Methods for treating diseases or conditions using dihydropteridinone compounds” (Boehringer Ingelheim Pharma GmbH & Co. KG, priority 2003, dated 2010)
pIC50: −log10 of the molar value.

Experiments:
H460-VINC = assay: Cytotoxicity on H460-VINC cells (Table 1; method not given); type: cell-based; details: H460-VINC of Table 1; unit inferred
HeLaS3 cells = assay: Measurement of cytotoxicity on cultivated human tumour cells (AlamarBlue); type: cell-based; details: HeLa in Table 1; unit inferred
Method: The activity of the compounds according to the invention was determined in the cytotoxicity test on cultivated human tumour cells and/or in a FACS analysis, for example on HeLaS3 cells.
Measurement of Cytotoxicity on Cultivated Human Tumour Cells
To measure the cytotoxicity on cultivated human tumour cells, cells of the cervical cancer tumour cell line HeLaS3 (obtained from American Type Culture Collection (ATCC)) in Ham's F12 Medium (Life Technologies) and 10% foetal calf serum (Life Technologies) were cultivated and harvested in the logarithmic growth phase. Then the HeLaS3 cells were placed in 96-well plates (Costar) at a density of 1000 cells per well and incubated overnight in an incubator (at 37° C. and 5% CO2), while on each plate 6 wells were filled only with medium (3 wells as a control of the medium, 3 wells for incubation with reduced AlamarBlue). The active substances were added to the cells in various concentrations (dissolved in DMSO; final concentration: 1%) (in each case as a triple measurement). After 72 hours' incubation, 20 μl of AlamarBlue (AccuMed International) were added to each well, and the cells were incubated for a further 7 hours. As a control, 20 μl of reduced Alamar Blue (AlamarBlue reagent which had been autoclaved for 30 min) were added to 3 wells. After 7 h incubation the colour change of the AlamarBlue reagent in the individual wells was determined in a Perkin Elmer fluorescence spectrophotometer (excitation 530 nm, emission 590 nm, slits 15, integrate time 0.1). The amount of AlamarBlue reagent reacted represents the metabolic activity of the cells. The relative cell activity was calculated as a percentage of the control (HeLa S3 cells without inhibitor) and the active substance concentration which inhibits the cell activity by 50% (IC^50) was obtained. The values were calculated from the average of three individual measurements, correcting for the control value (medium control).

SMILES: CC[C@@H]1C(=O)N(C)c2cnc(Nc3ccc(C(=O)NC(C)(C)CN(C)C)cc3OC)nc2N1CCC(C)C [Example 90]
- pIC50 (H460-VINC): 6.86
- pIC50 (HeLaS3 cells): 7.49

SMILES: COc1cc(C(=O)NC2CC(C)(C)N(C)C(C)(C)C2)ccc1Nc1ncc2c(n1)N(CC(C)(C)C)C(C)C(=O)N2C (stereo not shown) [Example 5]
- pIC50 (H460-VINC): 6.06
- pIC50 (HeLaS3 cells): 7.28

SMILES: CC[C@@H]1C(=O)N(C)c2cnc(Nc3ccc(C(=O)NCCC4CCCN4C)cc3OC)nc2N1CCC(C)C (stereo partly shown) [Example 167]
- pIC50 (H460-VINC): 6.09
- pIC50 (HeLaS3 cells): 7.47

SMILES: CC(C)N1CCC(NC(=O)c2ccc(Nc3ncc4c(n3)N(CC(C)(C)C)C(C)C(=O)N4C)cc2)CC1 (stereo not shown) [Example 12]
- pIC50 (H460-VINC): 5.97
- pIC50 (HeLaS3 cells): 7.00

SMILES: COc1cc(C(=O)NC2CC(C)(C)N(C)C(C)(C)C2)ccc1Nc1ncc2c(n1)N(C1CCCC1)[C@H](C)C(=O)N2C [Example 30]
- pIC50 (H460-VINC): 6.24
- pIC50 (HeLaS3 cells): 7.92

SMILES: CCC1C(=O)N(C)c2cnc(Nc3ccc(C(=O)NC4CCC(N5CCCC5)CC4)cc3OC)nc2N1C(C)C (stereo not shown) [Example 135]
- pIC50 (H460-VINC): 6.16
- pIC50 (HeLaS3 cells): 7.92

SMILES: CCN1CCC(NC(=O)c2ccc(Nc3ncc4c(n3)N(CC(C)(C)C)C(C)C(=O)N4C)cc2)CC1 (stereo not shown) [Example 11]
- pIC50 (H460-VINC): 5.89
- pIC50 (HeLaS3 cells): 7.07

SMILES: COc1cc(C(=O)NCCCN2CCOCC2)ccc1Nc1ncc2c(n1)N(C1CCCC1)C(C)C(=O)N2C (stereo not shown) [Example 63]
- pIC50 (H460-VINC): 6.69
- pIC50 (HeLaS3 cells): 7.09

SMILES: COc1cc(C(=O)NC2CCC(N(C)C)CC2)ccc1Nc1ncc2c(n1)N(C1CCCCC1)C(C)C(=O)N2C (stereo not shown) [Example 118]
- pIC50 (H460-VINC): 6.55
- pIC50 (HeLaS3 cells): 8.00

SMILES: CC(C)N1c2nc(Nc3ccc(C(=O)NC4CC(C)(C)N(C)C(C)(C)C4)cc3)ncc2N(C)C(=O)[C@H]1C [Example 33]
- pIC50 (H460-VINC): ≤ 5.52
- pIC50 (HeLaS3 cells): 7.01

SMILES: CCC1C(=O)N(C)c2cnc(Nc3ccc(C(=O)NC4CCC(N5CCCCC5)CC4)cc3OC)nc2N1C(C)C (stereo not shown) [Example 129]
- pIC50 (H460-VINC): 6.19
- pIC50 (HeLaS3 cells): 7.46

SMILES: COc1cc(C(=O)NC2CCN(C3CCOCC3)CC2)ccc1Nc1ncc2c(n1)N(C1CCCCC1)C(C)C(=O)N2C (stereo not shown) [Example 120]
- pIC50 (H460-VINC): 6.43
- pIC50 (HeLaS3 cells): 7.85

SMILES: COc1cc(C(=O)NCC(C)(C)CN(C)C)ccc1Nc1ncc2c(n1)N(C1CCCC1)C(C1CC1)C(=O)N2C (stereo not shown) [Example 51]
- pIC50 (H460-VINC): 6.82
- pIC50 (HeLaS3 cells): 7.10

SMILES: COc1cc(C(=O)NCC(C)(C)CN(C)C)ccc1Nc1ncc2c(n1)N(CC(C)(C)C)C(C)C(=O)N2C (stereo not shown) [Example 52]
- pIC50 (H460-VINC): 6.82
- pIC50 (HeLaS3 cells): 7.10

SMILES: COc1cc(C(=O)NC2CCN(C)CC2)ccc1Nc1ncc2c(n1)N(CCC(C)C)C(C)(C)C(=O)N2C [Example 162]
- pIC50 (H460-VINC): 6.04
- pIC50 (HeLaS3 cells): 7.15

SMILES: COc1cc(C(=O)NC2CCC(N(C)C)CC2)ccc1Nc1ncc2c(n1)N(CCC(C)C)C(C)C(=O)N2C (stereo not shown) [Example 114]
- pIC50 (H460-VINC): 6.12
- pIC50 (HeLaS3 cells): 7.19

SMILES: CC[C@@H]1C(=O)N(C)c2cnc(Nc3ccc(C(=O)NC4CCN(C)CC4)cc3OC)nc2N1CCC(C)C [Example 171]
- pIC50 (H460-VINC): 6.10
- pIC50 (HeLaS3 cells): 7.51

SMILES: CCC1C(=O)N(C)c2cnc(Nc3ccc(C(=O)NC4CCC(N(C)C)CC4)cc3OC)nc2N1C1CCCC1 (stereo not shown) [Example 23]
- pIC50 (H460-VINC): 6.17
- pIC50 (HeLaS3 cells): 7.89

SMILES: CCC1C(=O)N(C)c2cnc(Nc3ccc(C(=O)NC4CCC(N5CCOCC5)CC4)cc3OC)nc2N1C1CCCC1 (stereo not shown) [Example 131]
- pIC50 (H460-VINC): 7.00
- pIC50 (HeLaS3 cells): 7.64

SMILES: CC[C@@H]1C(=O)N(C)c2cnc(Nc3ccc(C(=O)NC4CCN(C)CC4)cc3OC)nc2N1c1ccccc1 [Example 88]
- pIC50 (H460-VINC): 5.99
- pIC50 (HeLaS3 cells): 7.70

SMILES: CC[C@@H]1C(=O)N(C)c2cnc(Nc3ccc(C(=O)NCCN4CCCC4)cc3OC)nc2N1CCC(C)C [Example 170]
- pIC50 (H460-VINC): 6.37
- pIC50 (HeLaS3 cells): 7.35

SMILES: CCN1CCC(NC(=O)c2ccc(Nc3ncc4c(n3)N(C(C)C)C(C)C(=O)N4C)c(OC)c2)CC1 (stereo not shown) [Example 20]
- pIC50 (H460-VINC): ≤ 5.52
- pIC50 (HeLaS3 cells): 7.08

SMILES: COc1cc(C(=O)NC2CC3CCC(C2)N3C)ccc1Nc1ncc2c(n1)N(C1CCCCC1)[C@H](C)C(=O)N2C (stereo partly shown) [Example 91]
- pIC50 (H460-VINC): 5.75
- pIC50 (HeLaS3 cells): 7.39
